Numbered stars: 1 amine (or outer) side, 2 acyl side, 3 side chain; on linkers, the order of the positions; unused ones are H or OH. Square brackets hold non-standard residues; d marks the D form. Peptide text beside a SMILES is read from it. NH(CH2CH2O)6CH2CO = O=C(COCCOCCOCCOCCOCCOCCN[*:1])[*:2]; pY = N[C@@H](Cc1ccc(OP(=O)(O)O)cc1)C(=O)O; X1 = O=C(c1ccc(C#CCN[*:1])cc1)[*:2]
Assays:
[1] = target: T1, Tyrosine-protein kinase SYK (Homo sapiens, UniProt P43405); assay: Binding affinity for Syk tandem SH2 domain in surface plasmon resonance assay (SPR)
[2] = target: T1, Tyrosine-protein kinase SYK; assay: Dissociation binding constant for Syk tandem SH2 domain

Row | SMILES | IC50 [1] | Kd [2]
1 | CC(=O)N[C@@H](Cc1ccc(OP(=O)(O)O)cc1)C(=O)N[C@H](C(=O)NCC(=O)N[C@@H](CC(C)C)C(=O)NCCOCCOCCOCCOCCOCCOCC(=O)N[C@@H](Cc1ccc(OP(=O)(O)O)cc1)C(=O)N[C@@H](CCC(=O)O)C(=O)N[C@H](C(=O)N[C@@H](CC(C)C)C(N)=O)[C@@H](C)O)[C@@H](C)O (Ac-[pY]TGL[NH(CH2CH2O)6CH2CO][pY]ETL-NH2) | 1200 nM | 340 nM
2 | CC(=O)N[C@@H](Cc1ccc(OP(=O)(O)O)cc1)C(=O)N[C@@H](CCC(=O)O)C(=O)N[C@H](C(=O)N[C@@H](CC(C)C)C(N)=O)[C@@H](C)O (Ac-[pY]ETL-NH2) | 570000 nM | 166000 nM
3 | CC(=O)N[C@@H](Cc1ccc(OP(=O)(O)O)cc1)C(=O)N[C@H](C(=O)NCC(=O)N[C@@H](CC(C)C)C(=O)NCC#Cc1ccc(C(=O)NCC#Cc2ccc(C(=O)N[C@@H](Cc3ccc(OP(=O)(O)O)cc3)C(=O)N[C@@H](CCC(=O)O)C(=O)N[C@H](C(=O)N[C@@H](CC(C)C)C(N)=O)[C@@H](C)O)cc2)cc1)[C@@H](C)O (Ac-[pY]TGL[X1][X1][pY]ETL-NH2) | 100 nM | 29 nM
4 | CC(=O)N[C@@H](Cc1ccc(OP(=O)(O)O)cc1)C(=O)N[C@H](C(=O)NCC(=O)N[C@@H](CC(C)C)C(=O)N[C@@H](CC(N)=O)C(=O)N[C@H](C(=O)N[C@@H](CCCN=C(N)N)C(=O)N[C@@H](CO)C(=O)N[C@@H](CCC(N)=O)C(=O)N[C@@H](CCC(=O)O)C(=O)N[C@H](C(=O)N[C@@H](Cc1ccc(OP(=O)(O)O)cc1)C(=O)N[C@@H](CCC(=O)O)C(=O)N[C@H](C(=O)N[C@@H](CC(C)C)C(N)=O)[C@@H](C)O)[C@@H](C)O)[C@@H](C)O)[C@@H](C)O (Ac-[pY]TGLNTRSQET[pY]ETL-NH2) | 130 nM | 37 nM
5 | CC(=O)N[C@@H](Cc1ccc(OP(=O)(O)O)cc1)C(=O)N[C@H](C(=O)NCC(=O)N[C@@H](CC(C)C)C(=O)NCC(=O)NCC#Cc1ccc(C(=O)NCC(=O)N[C@@H](Cc2ccc(OP(=O)(O)O)cc2)C(=O)N[C@@H](CCC(=O)O)C(=O)N[C@H](C(=O)N[C@@H](CC(C)C)C(N)=O)[C@@H](C)O)cc1)[C@@H](C)O (Ac-[pY]TGLG[X1]G[pY]ETL-NH2) | 62000 nM | 4000 nM
